# Measured values published in patent publication US20080207572A1, “Use of Dual C-Kit/Fgfr3 Inhibitors for Treating Multiple Myeloma” (AB Science, priority 2005, published 2008).
# What was measured:
# Assay type in all cases: cell-based
# [1] = test system: human mast cell line expressing the JMΔ27 mutated c-kit; test: Apoptosis induction in mast cell line; conditions: 0.1 μM, after 48 hours; control cells 10% apoptotic
# Procedure: (§1) In this experiment, after 48 hours, 0.1 μM AB1010 induced apoptosis of approximately 50% versus control cells in which 10% of cells were apoptotic. In addition, a separate cell line (Ba/F3-derived) expressing JMΔ27 was tested and apoptosis was induced to a level of approximately 85%.
# [2] = test system: cell line (Ba/F3-derived) expressing JMΔ27; test: Apoptosis induction in Ba/F3-derived cell line
# Procedure: as §1
# [3] = test system: t(4; 14) FGFR3+ human plasma cell line LP1; test: FGF-enhanced proliferation (3H-Thymidine uptake); conditions: in the presence of FGF; FIG. 2
# From the text: In the presence of FGF, the proliferation of the t(4; 14) FGFR3+ human plasma cell line is enhanced, as measured by 3H-Thymidine uptake.
structure (smiles),measurement,setting,value
Cc1ccc(NC(=O)c2ccc(CN3CCN(C)CC3)cc2)cc1Nc1nc(-c2cccnc2)cs1 [AB1010],apoptosis induced,[1],approximately 50%
same,apoptosis induced,[2],approximately 85%
same,inhibition of FGF-enhanced proliferation,[3],inhibit the FGF-enhanced proliferation
